Values of other authors in patent publication US9861605B2, “Enriched injectable emulsion containing selected fatty acid triglycerides” (STABLE SOLUTIONS LLC, priority 2011, dated 2018).

Details: against water

interfacial tension	Compound
15.6 dyne/cm	CCCCCCCC/C=C\CCCCCCCC(=O)O [oleic acid]
approximately 8.2 dyne/cm	CCCCCCCC(=O)O [caprylic acid]
